{
  "source": "patent US11974983B2",
  "about": "(Duke University, priority 2018, dated 2024)",
  "key": {"[1]": {"test_system": "wild-type ERα and ERα LBD mutants Y537S, Y537N, Y537C, D538G", "test": "ERE-luciferase reporter assay in Caov2 and SKBR3 cells (statements on all receptors)", "assay_type": "cell-based", "protocol": "ExSite mutagenesis was performed using the corresponding primers as summarized in Table 1 below on a pENTR2B ERα WT construct using Pfu ultra taq polymerase. The primers were PNK phosphorylated. Following PCR amplification, the products were digested with DpnI at 37° C. for 1 hr, followed by overnight ligation at 16° C. Ligated products were transformed into DH5α bacterial cells and grown on kanamycin resistant plates. The pENTR clones were verified by sequencing and then swapped into the pcDNA-DEST vector using the Gateway system (Invitrogen) for expression analysis.\nCaov2 ovarian carcinoma cells were grown in RPMI-1640 media (Gibco) supplemented with 8% Fetal Bovine Serum (FBS), Sodium Pyruvate (NaPyr) and non-essential amino acids (NEAA) and passaged every 2-3 days. SKBR3 breast adenocarcinoma cells were grown in DMEM media (Gibco) supplemented with 8% Fetal Bovine Serum (FBS), Sodium Pyruvate (NaPyr) and non-essential amino acids (NEAA) and passaged every 2-3 days. […]\nCaov2 cells were co-transfected with the 7X-TK-ERE-TATA luciferase reporter gene (Nagel et al., Endocrinology 142(11): 4721-4728 (2001)) and expression constructs for either wild-type or mutant receptors using Fugene transfection reagent (Promega). […] Following 24 hours of treatment, cells were lysed and the luciferase and β-gal assays were performed as described previously (Norris et al., J Biol Chem 270(39): 22777-22782 (1995)) and the plates were read on the Fusion α-FP HT plate reader (PerkinElmer Life Sciences).\nSee Jeselsohn et al., Nature Reviews Clinical Oncology 12(10): 573-583 (2015); Jeselsohn et al., Clinical Cancer Research 20(7): 1757-1767 (2014); Robinson et al., Nature Genetics 45(12): 1446-1451(2013); Thomas and Gustafsson, Trends in Endocrinology and Metabolism 26(9): 467-476 (2015); and Toy et al., Nature Genetics 45(12): 1439-1445 (2013). The activity of these mutants was evaluated in a reconstituted estrogen response element (ERE)-luciferase reporter assay in Caov2 ovarian carcinoma cells and SKBR3 breast adenocarcinoma cells. […]"}, "[2]": {"test": "Cmax in blood at doses used in prior clinical trials", "assay_type": "in vivo", "settings": "dose 1 mg; read-out: Converted (M) Cmax", "source_text": "See Maximov et al., Current Clinical Pharmacology 8(2): 135-155 (2013). […] See Assessment Report for Fablyn, 2009 (EMA). […] See Gardner et al., J Clin Pharmacol 46(1): 52-58 (2006)."}, "[3]": {"test_system": "MCF7 cells stably expressing DOX-inducible ER D538G", "test": "Dose response cell counting in MCF7 cells with DOX-inducible HA-tagged ER D538G", "assay_type": "cell-based", "settings": "for IC50: Homo sapiens, MCF7, 120 h, allele D538G, cell count day 5, full medium", "protocol": "MCF7 estrogen receptor alpha positive (ER^+) breast cancer cells were engineered to stably express doxycycline (DOX)-inducible hemagglutinin (HA)-tagged full length ER with ligand binding domain mutations Y537S and D538G. The introduction and expression of the mutants were confirmed by Sanger sequencing, RNA-sequencing, and western blot.\nThe dose response studies were performed in full medium conditions. Cells were treated with DOX for the induction of HA-tagged mutated ER or with vehicle as control, and plated in triplicate. Subsequently, on day 5, cell counting was performed using the Celigo instrument with Hoechst dye staining to detect nucleated live cells and propidium iodide to quantify dead cells.\nIC50 values were calculated using PRISM."}, "[4]": {"target": "T1, ERα wild-type LBD (Homo sapiens, UniProt P03372, C381S/C417S/C530S/L536S)", "T1 construct": "6x-His-TEV (N, cleaved yes); made in house; host or cells: E. coli BL21(DE3)", "T1 sequence (P03372 311-547 C381S/C417S/C530S/L536S limits assumed)": "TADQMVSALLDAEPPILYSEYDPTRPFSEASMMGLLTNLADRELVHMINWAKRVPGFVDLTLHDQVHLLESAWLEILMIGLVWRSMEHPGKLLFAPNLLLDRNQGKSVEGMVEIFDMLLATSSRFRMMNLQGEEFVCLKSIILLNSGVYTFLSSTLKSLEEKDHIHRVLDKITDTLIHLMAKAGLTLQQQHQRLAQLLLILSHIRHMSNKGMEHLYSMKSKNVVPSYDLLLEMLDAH", "test": "X-ray crystal structure of ligand-bound ERα wild-type LBD (L536S)", "protocol": "6x-His-TEV-Estrogen receptor alpha ligand binding domain containing C381S, C417S, C530S with L536S or Y537S mutations were expressed in E. coli BL21(DE3). The L536S mutant stabilizes the wild-type antagonist conformation and Y537S is an activating somatic mutation that has been identified in patients with acquired hormone resistance. Both proteins were purified using Ni-NTA resin, the 6x-His tag was cleaved using tev protease, removed using Ni-NTA resin, and a final purification was performed by passing the protein over a size exclusion column. The main peak was concentrated to 10 mg/mL and flash frozen.\nHanging drop vapor diffusion was used to crystallize the complexes. The L536S-Laso (lasofoxifene-bound ERα wild-type LBD) complex formed clear hexagonal crystals in 25% PEG 8,000, 200 mM MgCl2, HEPES pH 7.5 after two weeks at room temperature. The Y537S-Laso (lasofoxifene-bound ERα Y537S mutant LBD) complex formed rectangular crystals in 20% PEG 3.35K, 200 mM MgCl2, HEPES pH 6.5 after one week at room temperature.\nCrystals were cryo-protected in 25% glycerol in mother liquor and flash frozen in liquid nitrogen. All x-ray crystallographic data sets were collected at the Advanced Photon Source. The L536S-Laso complex diffracted to 1.8 Å and the Y537S-Laso complex diffracted to 2.1 Å by cc^1/2 over 50%. Phaser was used for molecular replacement with 5UFX as the model. […]"}, "[5]": {"settings": "in blood, cited from earlier work"}},
  "note": "Read-outs that look alike come from different tables or passages of the source.",
  "data": [
    {"molecule": "Oc1ccc2c(c1)CC[C@H](c1ccccc1)[C@@H]2c1ccc(OCCN2CCCC2)cc1", "note": "[Lasofoxifene, lasofoxifene]", "values": [
      {"measurement": "inhibition of the transcriptional activity of the ERα mutants", "setting": "[1]; all tested ERα LBD mutants, in presence of 1 nM 17-β estradiol, Caov2 and SKBR3 cells", "result": "effectively inhibited the transcriptional activity of all tested ERα LBD mutants in a dose-response manner"},
      {"measurement": "response of mutants to inhibitory action compared with WT receptor", "setting": "[1]; each mutant versus WT receptor", "result": "reduced response"},
      {"measurement": "Cmax", "setting": "[2]", "result": "1.55e-08", "unit": "M"},
      {"measurement": "anti-estrogenic activity, cell killing with increasing dose titration", "setting": "[3]; D538G stable transfectants, 10^−12 M to 10^−6 M", "result": "kill the stably transfected cells"},
      {"measurement": "IC50", "setting": "[3]; DOX-induced mutant ER, read-out: IC50 DOX (ESR mutation)", "result": 1, "unit": "nM"},
      {"measurement": "IC50", "setting": "[3]; no DOX, read-out: IC50 No DOX (wt only)", "result": 0.1, "unit": "nM"},
      {"measurement": "loop between helix 11 and helix 12 in the crystal structure", "setting": "[4]", "result": "does not disrupt the loop between helix 11 and helix 12"},
      {"measurement": "Reported Cmax", "setting": "[5]; dose 0.5 mg", "result": 3.6, "unit": "ng/mL"},
      {"measurement": "Reported Cmax", "setting": "[5]; dose 1 mg", "result": 6.43, "unit": "ng/mL"}
    ]}
  ]
}
